Source: the NIST ThermoML archive (doi:10.1016/j.jct.2004.03.002)
Numbers after ± are expanded uncertainties.

Experiments:
[1] = Crystal
[2] = Molar enthalpy of transition or fusion; details: Crystal
[3] = molar enthalpy of vaporization or sublimation; details: Crystal

| Structure (SMILES) | Triple point temperature ([1]; DTA) [K] | Triple point temperature ([1]; heat flux calorimetry) [K] | Molar enthalpy of transition or fusion ([2]; DSC) [kcal/mol] | Molar enthalpy of transition or fusion ([2]; heat flux calorimetry) [kcal/mol] | molar enthalpy ([3]; 297.3 K) [kcal/mol] | molar enthalpy ([3]; 297.4 K) [kcal/mol] | molar enthalpy ([3]; 298.15 K) [kcal/mol] | molar enthalpy ([3]; 277.3 K) [kcal/mol] | molar enthalpy ([3]; 278.2 K) [kcal/mol] | molar enthalpy ([3]; 279.2 K) [kcal/mol] |
| --- | --- | --- | --- | --- | --- | --- | --- | --- | --- | --- |
| CC1=C(C)C(=O)C(C)=C(C)C1=O [1,4-benzoquinone, tetramethyl-] | 384.12 ± 0.64 | 384.84 ± 0.09 | 4.4 ± 0.105 | 4.431 ± 0.0382 | 22.3 ± 0.765 | 21.9 ± 0.765 | 22.3 ± 1.05 |  |  |  |
| O=C1C=CC(=O)C=C1 [1,4-benzoquinone] | 385.07 ± 0.68 | 385.65 ± 0.24 | 4.4 ± 0.108 | 4.39 ± 0.174 |  |  | 15.9 ± 0.884 | 15.4 ± 0.598 | 15.1 ± 0.598 | 14.9 ± 0.598 |
